From ChEMBL document CHEMBL1148176, “Polycyclic guanidine alkaloids from the marine sponge Crambe crambe and Ca++ channel blocker activity of crambescidin 816” (J Nat Prod, 1993) come the findings set out here.

Active and inactive are the calls of the source. No cut-off for these calls is given here.

As a reminder, the inhibition is the share of the control response that was lost under treatment.

Data set [1] concerns the target L-type calcium channel (Mus musculus, UniProt Q01815+Q02789+Q99246+Q9JIS7). Kind of data set: Antagonist activity at voltage-dependent L-type calcium channel in mouse neurobalstoma-rat glioma NG 108-15 hybrid cells assessed as inhibition of KCl-induced increase in intracellular calcium level pretreated for 3 mins before KCl challenge. The class given is functional, cell-based. (In general: Calcium flux is commonly read through the fluorescence of an indicator in the cells.)

Data set [2] deals with Ephydatia fluviatilis. Kind of data set: Inhibition of reaggregation of cells in Ephydatia fluviatilis. The class given is functional.
For data set [3], the system named is Poecilia reticulata. Nature of the data set: Toxicity against Lebistes reticulatus at 0.2 mg/l. The data set is classed as organism-based. The settings on record: in vivo.
For data set [4], the system named is Jejunum. Kind of data set: Inhibition of acetylcholine-induced contraction in Sprague-Dawley rat jejunum at 6.0 pM pretreated for 3 mins before acetylcholine challenge. The class given is functional.
In data set [5] the test system is Jejunum. Kind of data set: Inhibition of acetylcholine-induced contraction in Sprague-Dawley rat jejunum at 1.2 pM pretreated for 3 mins before acetylcholine challenge. The class given is functional.
Data set [6] concerns Ileum. Kind of data set: Inhibition of acetylcholine-induced contraction in guinea pig ileum. The class given is functional, tissue-based. As to conditions: Cavia porcellus.
Data set [7] relates to Jejunum. Nature of the data set: Inhibition of acetylcholine-induced contraction in Sprague-Dawley rat jejunum at 0.6 pM pretreated for 3 mins before acetylcholine challenge. The class given is functional.
Data set [8] has as its system Jejunum. Nature of the data set: Inhibition of Sprague-Dawley rat jejunum contraction at 0.6 to 6.0 pM. The class given is functional, tissue-based.
For data set [9], the system named is Jejunum. Nature of the data set: Inhibition of acetylcholine-induced contraction in Sprague-Dawley rat jejunum pretreated for 3 mins before acetylcholine challenge. The class given is functional, tissue-based.
A short description of data set [10]: Cytotoxicity against human HCT16 cells. The class given is functional, cell-based.

Turning to `COC(=O)C1=C(C)NC(C)=C(C(=O)OC)C1c1ccccc1[N+](=O)[O-]` [NIFEDIPINE], in data set [1], the IC50 came to 1.2 µM.
As to `CCCCCCCCCCCC1N=C(N)NC(CCCO)=C1C(=O)OCCCCCNC(=N)N.Cl` (stereo not drawn) [CRAMBINE C1], the Activity in data set [2] is reported as 2.1 ×10⁻² M; in [3], “Toxic”.
As to `CCCCCCCCCCC[C@@H]1N=C(N)N[C@]2(CCCO2)[C@@H]1C(=O)OCCCCCNC(=N)N.Cl` [CRAMBINE B], the values for the Activity in [2] and in [3] were 2 mM and “Toxic”, respectively.
In the case of `CC[C@H]1C=CCC[C@]2(C[C@H]3CC[C@]4(O)[C@H](C(=O)OCCCCCCCCCCCCCCCC(=O)N(CCCN)C[C@@H](O)CCN)[C@@]5(CCC[C@@H](C)O5)NC(=[N+]34)N2)O1.[Cl-]` [CRAMBESCIDIN 816 HYDROCHLORIDE], the IC50 is 1.5 ×10⁻⁴ microM in data set [1] and 0.24 µg/mL in data set [10]. In addition, the Activity result in data set [1] (mouse) was “Dose-dependent effect”; in data set [2] it was 1.2 mM; in data set [3], “Toxic”; in data set [9] it was “Dose-dependent effect”. The inhibition at 6 pM in data set [4] came to 30%. The inhibition at 1.2 pM in data set [5] is 25%. The result in [6] was Active. The inhibition at 600 fM in data set [7] was found to be 18%. Besides, the outcome in data set [8] was inactive.
Consider `CCCCCCCCCCCC1N=C(N)N2CCCC2=C1C(=O)OCCCCNC(=N)N.Cl` (stereo not drawn) [CRAMBINE A], for which the Activity in data set [2] is 2.3 mM; in data set [3], “Toxic”.
